Read-outs that look alike come from different tables or passages of the source.
How the values were obtained:
[1] = system: MM1.S (multiple myeloma) cells; assay: In vitro cell proliferation, MM1.S multiple myeloma cells (CellTiter-Glo, ATP); format: cell-based; settings: read-out: Prolif MM1S ATP (EC50)
Protocol: BaF3, a murine interleukin-3 dependent pro-B cell line, parental cells, BaF3 PIM1 cells, BaF3 PIM2 cells, and MM1.S (multiple myeloma) cells were seeded at 2 k/well, 5 k/well, 5 k/well, and 10 k/well respectively, in a 384-well plate, at 45 μL/well. Test compound was added at 5 μL/well. BaF3 cells (parental and transfected) were incubated overnight, while MM1.S cells were incubated for 72 hours at 37° C., 5% CO2. […] IC50/EC50 values for the test compound were calculated.

[2] = system: BaF3 parental cells; assay: In vitro cell proliferation, BaF3 parental line + IL3 (CellTiter-Glo); format: cell-based, murine
[3] = Mus musculus, BaF3, BaF3 parental cells with IL-3, incubated overnight, read-out: Prolif BaF3 + IL3 (IC50)
[4] = Mus musculus, BaF3, BaF3 parental cells with IL-3, incubated overnight, read-out: Prolif BaF3 IL3 (IC50)
[5] = BaF3 parental cells with IL-3, incubated overnight, read-out: Prolif BaF3 + IL3 (IC50)

Compound | EC50 ([1]; Homo sapiens, MM1.S, 72 h) [µM] | IC50 [2, 3] [µM] | IC50 [2, 4] [µM] | EC50 ([1]; 72 hours) [µM] | IC50 [2, 5] [µM]
C=C1C[C@@H](N)CCN(c2c(NC(=O)c3nc(-c4c(F)cccc4F)sc3N)cnn2C)C1 [Example 449, 5-amino-N-[5-[(5R)-5-amino-3-methylene-azepan-1-yl]-1-methyl-pyrazol-4-yl]-2-(2,6-difluorophenyl)thiazole-4-carboxamide] | 4.2 | 8.5 |  |  | 
[2H]C([2H])([2H])n1ncc(NC(=O)c2nc(-c3c(F)cccc3F)sc2N)c1N1CC[C@@H](N)[C@H](F)CC1 [Example 451, 5-amino-N-[5-[(4R,5R)-4-amino-5-fluoro-azepan-1-yl]-1-(trideuteriomethyl)pyrazol-4-yl]-2-(2,6-difluorophenyl)thiazole-4-carboxamide] | 0.124 | 9.4 |  |  | 
Cn1ncc(NC(=O)c2nc(-c3c(F)cccc3F)sc2N)c1N1CCC2(CCNC2)CC1 [Example 124, 5-Amino-2-(2,6-difluorophenyl)-N-(1-methyl-5-(2,8-diazaspiro[4.5]decan-8-yl)-1H-pyrazol-4-yl)thiazole-4-carboxamide] | 1.4 |  | 22.1 |  | 
COC1CC(N)CCN(c2c(NC(=O)c3nc(-c4c(F)cccc4F)sc3N)cnn2C)C1 (stereo not drawn) [Example 316, 5-amino-N-[5-(5-amino-3-methoxy-azepan-1-yl)-1-methyl-pyrazol-4-yl]-2-(2,6-difluorophenyl)thiazole-4-carboxamide] |  |  |  | 0.163 | > 25
Cn1ncc(NC(=O)c2nc(-c3c(F)cccc3F)sc2N)c1N1CC[C@@H](O)[C@H](O)CC1 [Example 490, 5-amino-2-(2,6-difluorophenyl)-N-(5-((4R,5R)-4,5-dihydroxyazepan-1-yl)-1-methyl-1H-pyrazol-4-yl)thiazole-4-carboxamide] | 8.8 | > 25 |  |  | 
COC1(C)CCN(c2c(NC(=O)c3nc(-c4c(F)cccc4F)sc3N)cnn2C)CCC1N (stereo not drawn) [Example 485, 5-amino-N-[5-(5-amino-4-methoxy-4-methyl-azepan-1-yl)-1-methyl-pyrazol-4-yl]-2-(2,6-difluorophenyl)thiazole-4-carboxamide] | 0.415 | 11.6 |  |  | 
Cn1ncc(NC(=O)c2nc(-c3c(F)cccc3F)sc2N)c1C1CCC(N)CC(C)(O)C1 (single isomer, unassigned) [Example 467, 5-amino-N-[5-(5-amino-3-hydroxy-3-methyl-cycloheptyl)-1-methyl-pyrazol-4-yl]-2-(2,6-difluorophenyl)thiazole-4-carboxamide] |  |  |  | 4.8 | > 25
Cn1ncc(NC(=O)c2nc(-c3c(F)cccc3F)sc2N)c1N1CCC(N)C(O)CC1 (single isomer, unassigned) [Example 328, 5-amino-N-[5-(4-amino-5-hydroxy-azepan-1-yl)-1-methyl-pyrazol-4-yl]-2-(2,6-difluorophenyl)thiazole-4-carboxamide] |  |  |  | 11.5 | > 25
CNCC1CCN(c2c(NC(=O)c3nc(-c4c(F)cccc4F)sc3N)cnn2C)CC1 [Example 101, 5-Amino-2-(2,6-difluorophenyl)-N-(1-methyl-5-(4-((methylamino)methyl)piperidin-1-yl)-1H-pyrazol-4-yl)thiazole-4-carboxamide] | 17.9 |  | 19.5 |  | 
COC1(C)CCN(c2c(NC(=O)c3nc(-c4c(F)cccc4F)sc3N)cnn2C)CCC1N (single isomer, unassigned) [Example 502, 5-amino-N-[5-(5-amino-4-methoxy-4-methyl-azepan-1-yl)-1-methyl-pyrazol-4-yl]-2-(2,6-difluorophenyl)thiazole-4-carboxamide] |  | 11.9 |  | 2.2 | 
Cn1ncc(NC(=O)c2nc(-c3c(F)cccc3F)sc2N)c1N1CCCC(C)(N)CC1 (stereo not drawn) [Example 435, 5-amino-N-[5-(4-amino-4-methyl-azepan-1-yl)-1-methyl-pyrazol-4-yl]-2-(2,6-difluorophenyl)thiazole-4-carboxamide] | 1.8 | 9.8 |  |  | 
Cn1ncc(NC(=O)c2nc(-c3c(F)cccc3F)sc2N)c1N1CCC(N)CC2(CCO2)C1 (single isomer, unassigned) [Example 452, 5-amino-N-[5-(6-amino-1-oxa-9-azaspiro[3.6]decan-9-yl)-1-methyl-pyrazol-4-yl]-2-(2,6-difluorophenyl)thiazole-4-carboxamide] |  |  |  | 0.0793 | 24.7
Cn1ncc(NC(=O)c2nc(-c3c(F)cccc3F)sc2N)c1N1CC[C@H](O)[C@@](C)(N)CC1 [Example 424, 5-amino-N-(5-((4S,5S)-4-amino-5-hydroxy-4-methylazepan-1-yl)-1-methyl-1H-pyrazol-4-yl)-2-(2,6-difluorophenyl)thiazole-4-carboxamide] | 6.5 | > 25 |  |  | 
CC[C@H]1CN(c2c(NC(=O)c3nc(-c4c(F)cccc4F)sc3N)cnn2C)CC[C@@]1(CN)OC [Example 496, 5-amino-N-(5-((3S,4R)-4-(aminomethyl)-3-ethyl-4-methoxypiperidin-1-yl)-1-methyl-1H-pyrazol-4-yl)-2-(2,6-difluorophenyl)thiazole-4-carboxamide] | 19.6 | 11.6 |  |  | 
[2H]C([2H])([2H])OC1CCN(c2c(NC(=O)c3nc(-c4c(F)cccc4F)sc3N)cnn2C)CCC1N (stereo not drawn) [Example 492, 5-amino-N-[5-[4-amino-5-(trideuteriomethoxy)azepan-1-yl]-1-methyl-pyrazol-4-yl]-2-(2,6-difluorophenyl)thiazole-4-carboxamide] | 0.0737 | 20.4 |  |  | 
Cn1ncc(NC(=O)c2nc(-c3c(F)cccc3F)sc2N)c1C1CCC(N)CC(C)(O)C1 (single isomer, unassigned) [Example 468, 5-amino-N-[5-(5-amino-3-hydroxy-3-methyl-cycloheptyl)-1-methyl-pyrazol-4-yl]-2-(2,6-difluorophenyl)thiazole-4-carboxamide] |  |  |  | 0.824 | > 25
COC1CCN(c2c(NC(=O)c3nc(-c4ncccc4F)sc3N)cnn2C)CCC1N (racemic) [Example 323, 5-amino-N-[5-(4-amino-5-methoxy-azepan-1-yl)-1-methyl-pyrazol-4-yl]-2-(3-fluoro-2-pyridyl)thiazole-4-carboxamide] | 0.165 | > 25 |  |  | 
COC1CCN(c2c(NC(=O)c3nc(-c4c(F)cccc4F)sc3N)cnn2C)CCC1N (stereo not drawn) [Example 314, 5-amino-N-[5-(4-amino-5-methoxy-azepan-1-yl)-1-methyl-pyrazol-4-yl]-2-(2,6-difluorophenyl)thiazole-4-carboxamide] |  | 13.9 |  | 9 | 
Cn1ncc(NC(=O)c2nc(-c3c(F)cccc3F)sc2N)c1N1CCC[C@H](N)[C@@H](F)C1 (single isomer, unassigned) [Example 158] | 3 |  | 11.6 |  | 
Cn1ncc(NC(=O)c2nc(-c3c(F)cccc3F)sc2N)c1N1CC[C@@H](O)[C@@H](O)CC1 [Example 457, 5-amino-2-(2,6-difluorophenyl)-N-(5-((4R,5S)-4,5-dihydroxyazepan-1-yl)-1-methyl-1H-pyrazol-4-yl)thiazole-4-carboxamide] | 4 | > 25 |  |  | 
COC1(C)CCN(c2c(NC(=O)c3nc(-c4c(F)cccc4F)sc3N)cnn2C)CCC1N (single isomer, unassigned) [Example 503, 5-amino-N-[5-(5-amino-4-methoxy-4-methyl-azepan-1-yl)-1-methyl-pyrazol-4-yl]-2-(2,6-difluorophenyl)thiazole-4-carboxamide] |  |  |  | 0.108 | 11
Cn1ncc(NC(=O)c2nc(-c3c(F)cccc3F)sc2N)c1N1CCCC(C)(N)CC1 (single isomer, unassigned) [Example 436, 5-amino-N-[5-(4-amino-4-methyl-azepan-1-yl)-1-methyl-pyrazol-4-yl]-2-(2,6-difluorophenyl)thiazole-4-carboxamide] | 4.9 | 8.3 |  |  | 
COC1CC(N)CCN(c2c(NC(=O)c3nc(-c4c(F)cccc4F)sc3N)cnn2C)C1 (stereo not drawn) [Example 317, 5-amino-N-[5-(5-amino-3-methoxy-azepan-1-yl)-1-methyl-pyrazol-4-yl]-2-(2,6-difluorophenyl)thiazole-4-carboxamide] |  |  |  | 0.663 | > 25
Cn1ncc(NC(=O)c2nc(-c3c(F)cccc3F)sc2N)c1N1CCC(N)C(C(F)F)CC1 (single isomer, unassigned) [Example 512, 5-amino-N-[5-[4-amino-5-(difluoromethyl)azepan-1-yl]-1-methyl-pyrazol-4-yl]-2-(2,6-difluorophenyl)thiazole-4-carboxamide] | 2 |  |  |  | 24.6
COC1CCC(c2c(NC(=O)c3nc(-c4ccccc4F)sc3N)cnn2C)CCC1N (stereo not drawn) [Example 506] |  |  |  | 11.7 | 17.1
Cn1ncc(NC(=O)c2nc(-c3c(F)cccc3F)sc2N)c1N1CCNCC2(CC2)C1 [Example 313, 5-amino-N-[5-(5,8-diazaspiro[2.6]nonan-8-yl)-1-methyl-pyrazol-4-yl]-2-(2,6-difluorophenyl)thiazole-4-carboxamide] | 6.4 | 17 |  |  | 
COC1(C)CC(N)CCN(c2c(NC(=O)c3nc(-c4c(F)cccc4F)sc3N)cnn2C)C1 (single isomer, unassigned) [Example 352, 5-amino-N-[5-(5-amino-3-methoxy-3-methyl-azepan-1-yl)-1-methyl-pyrazol-4-yl]-2-(2,6-difluorophenyl)thiazole-4-carboxamide] |  |  |  | 0.00869 | 10.4

Reference: patent US8614206B2 (Genentech, Inc., priority 2011, dated 2013)
